Laboratory results reported in ChEMBL document CHEMBL1153168, “3D QSAR studies on 3,4-dihydroquinazolines as T-type calcium channel blocker by comparative molecular similarity indices analysis (CoMSIA)” (Bioorg Med Chem Lett, 2010).

Molecular target: Voltage-dependent T-type calcium channel subunit alpha-1G (Homo sapiens, UniProt O43497)
Assay: Inhibition of human T-type calcium channel alpha1G in HEK293 cells
Assay type: cell-based

Sequence of Voltage-dependent T-type calcium channel subunit alpha-1G (O43497 whole entry): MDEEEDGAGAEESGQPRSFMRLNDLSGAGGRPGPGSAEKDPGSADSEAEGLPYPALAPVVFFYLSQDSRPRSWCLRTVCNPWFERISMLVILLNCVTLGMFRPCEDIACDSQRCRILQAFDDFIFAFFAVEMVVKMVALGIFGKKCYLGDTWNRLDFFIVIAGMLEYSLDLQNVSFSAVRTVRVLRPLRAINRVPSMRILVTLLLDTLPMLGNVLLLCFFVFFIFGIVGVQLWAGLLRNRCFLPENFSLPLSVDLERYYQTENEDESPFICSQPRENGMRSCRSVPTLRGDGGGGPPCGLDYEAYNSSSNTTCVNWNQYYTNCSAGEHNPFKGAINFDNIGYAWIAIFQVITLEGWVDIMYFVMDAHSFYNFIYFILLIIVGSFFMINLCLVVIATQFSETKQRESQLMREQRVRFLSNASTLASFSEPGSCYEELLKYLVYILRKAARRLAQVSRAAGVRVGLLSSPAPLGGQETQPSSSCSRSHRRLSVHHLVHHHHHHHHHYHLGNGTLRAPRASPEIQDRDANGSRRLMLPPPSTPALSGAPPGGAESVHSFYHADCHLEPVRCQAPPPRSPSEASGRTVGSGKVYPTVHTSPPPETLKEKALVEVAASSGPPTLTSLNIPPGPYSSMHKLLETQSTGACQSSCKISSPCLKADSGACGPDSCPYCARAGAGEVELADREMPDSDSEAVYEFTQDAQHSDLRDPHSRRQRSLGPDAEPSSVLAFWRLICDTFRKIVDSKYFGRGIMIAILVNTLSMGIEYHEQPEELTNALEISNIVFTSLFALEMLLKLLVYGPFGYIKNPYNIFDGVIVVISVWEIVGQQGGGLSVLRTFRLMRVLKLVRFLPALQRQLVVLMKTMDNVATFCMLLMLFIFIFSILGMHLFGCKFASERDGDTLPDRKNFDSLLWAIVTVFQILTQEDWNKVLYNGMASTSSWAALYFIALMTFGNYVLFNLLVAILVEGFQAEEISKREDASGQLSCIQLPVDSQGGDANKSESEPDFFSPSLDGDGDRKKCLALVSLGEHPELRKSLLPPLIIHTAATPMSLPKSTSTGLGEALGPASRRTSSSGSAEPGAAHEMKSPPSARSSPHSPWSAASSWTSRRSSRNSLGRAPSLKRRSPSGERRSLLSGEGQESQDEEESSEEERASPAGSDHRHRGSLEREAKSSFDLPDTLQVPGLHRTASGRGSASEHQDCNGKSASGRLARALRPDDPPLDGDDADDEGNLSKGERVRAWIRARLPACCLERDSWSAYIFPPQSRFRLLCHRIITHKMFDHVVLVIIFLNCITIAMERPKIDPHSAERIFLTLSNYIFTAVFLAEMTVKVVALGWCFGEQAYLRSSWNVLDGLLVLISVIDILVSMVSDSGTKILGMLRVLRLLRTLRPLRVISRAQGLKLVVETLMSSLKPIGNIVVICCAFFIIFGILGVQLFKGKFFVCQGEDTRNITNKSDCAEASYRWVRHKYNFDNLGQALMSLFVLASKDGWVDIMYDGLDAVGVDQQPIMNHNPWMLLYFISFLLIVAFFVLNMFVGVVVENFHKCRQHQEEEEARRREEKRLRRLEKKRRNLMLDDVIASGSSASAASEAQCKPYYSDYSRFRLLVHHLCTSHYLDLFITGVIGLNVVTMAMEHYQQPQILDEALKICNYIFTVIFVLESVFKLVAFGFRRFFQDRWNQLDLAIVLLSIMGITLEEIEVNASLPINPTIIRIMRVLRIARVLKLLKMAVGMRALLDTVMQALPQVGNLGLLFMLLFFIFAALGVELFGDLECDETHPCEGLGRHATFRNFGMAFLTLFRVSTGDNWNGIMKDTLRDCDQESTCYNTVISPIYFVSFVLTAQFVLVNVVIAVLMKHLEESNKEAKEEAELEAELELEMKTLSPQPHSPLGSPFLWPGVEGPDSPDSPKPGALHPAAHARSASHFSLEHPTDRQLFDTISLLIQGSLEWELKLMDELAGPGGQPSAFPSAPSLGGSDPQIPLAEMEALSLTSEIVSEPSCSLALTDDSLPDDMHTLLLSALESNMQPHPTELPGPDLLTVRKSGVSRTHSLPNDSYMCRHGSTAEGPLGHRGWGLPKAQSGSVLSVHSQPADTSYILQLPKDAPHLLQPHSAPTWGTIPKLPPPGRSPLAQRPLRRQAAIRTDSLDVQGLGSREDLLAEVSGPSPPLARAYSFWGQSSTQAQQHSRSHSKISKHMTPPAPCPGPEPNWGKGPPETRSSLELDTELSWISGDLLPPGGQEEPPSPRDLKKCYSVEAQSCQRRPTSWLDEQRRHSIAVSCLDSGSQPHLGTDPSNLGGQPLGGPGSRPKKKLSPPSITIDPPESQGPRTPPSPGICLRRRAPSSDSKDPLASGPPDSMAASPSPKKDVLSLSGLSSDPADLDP

Row | Compound | IC50 [nM]
1 | O=C(CC1c2ccccc2N=C(N2CCCCC2)N1c1ccccc1)NCc1ccc([N+](=O)[O-])cc1 (stereo not drawn) | 2340
2 | CN(C)C1=Nc2ccccc2C(CC(=O)NCc2ccc(NS(=O)(=O)c3ccc(F)cc3)cc2)N1c1ccccc1 (stereo not drawn) | 430
3 | CCN1C(N2CCCCC2)=Nc2ccccc2C1CC(=O)NCc1ccccc1 (stereo not drawn) | 4580
4 | COC(=O)CC1c2ccccc2N=C(NCCCCCN)N1c1ccccc1 (stereo not drawn) | 1840
5 | CCN1C(N(C)C)=Nc2ccccc2C1CC(=O)NCc1ccc(NS(=O)(=O)c2ccc(F)cc2)cc1 (stereo not drawn) | 4100
6 | CCN1C(N2CCCCC2)=Nc2ccccc2C1CC(=O)NCc1ccc([N+](=O)[O-])cc1 (stereo not drawn) | 869
7 | NCCCCCN1C(Nc2ccccc2)=Nc2ccccc2C1CC(=O)NCc1ccccc1 (stereo not drawn) | 4540
8 | COC(=O)CC1c2ccccc2N=C(Nc2ccccc2)N1CCCCCNC(=O)OC(C)(C)C (stereo not drawn) | 2270
9 | COC(=O)CC1c2ccccc2N=C(Nc2ccccc2)N1CCCCCN (stereo not drawn) | 9160
10 | CCN1C(N(C)C)=Nc2ccccc2C1CC(=O)NCc1ccc([N+](=O)[O-])cc1 (stereo not drawn) | 2170
11 | COC(=O)CC1c2ccccc2N=C(NCCCCCNC(=O)OC(C)(C)C)N1c1ccccc1 (stereo not drawn) | 2020
12 | CCN1C(N(C)C)=Nc2cc(N)ccc2C1CC(=O)NCc1ccc(N)cc1 (stereo not drawn) | 12700
13 | NCCCCCNC1=Nc2ccccc2C(CC(=O)NCc2ccccc2)N1c1ccccc1 (stereo not drawn) | 3130
14 | CCN1C(N(C)C)=Nc2ccccc2C1CC(=O)NCc1ccccc1 (stereo not drawn) | 24200
15 | CCN1C(N(C)C)=Nc2ccccc2C1CC(=O)NCc1ccc(NS(=O)(=O)c2ccc(C)cc2)cc1 (stereo not drawn) | 1120
16 | CC(C)(C)OC(=O)NCCCCCN1C(Nc2ccccc2)=Nc2ccccc2C1CC(=O)NCc1ccccc1 (stereo not drawn) | 1200
17 | Nc1ccc(CNC(=O)CC2c3ccccc3N=C(N3CCCCC3)N2c2ccccc2)cc1 (stereo not drawn) | 13000
18 | O=C(CC1c2ccccc2N=C(N2CCCCC2)N1c1ccccc1)NS(=O)(=O)c1cccs1 (stereo not drawn) | 1010
